Experimental data taken from ChEMBL document CHEMBL1201862, “PubChem BioAssay data set” (2004).
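Assay format: 96-well plates, 48-hour exposure. GI50 marks 50% less growth.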 Calls of active or inactive are those of the source. No stated cut-off is given here; in the data, active = GI50 up to about 1.1 µM and inactive = higher.

Assays:
Experiment in all cases: DTP human tumour cell line panel, 48 h
HOP-18 = system: HOP-18
LXFL 529 = system: LXFL 529
DLD-1 = system: DLD-1
SNB-78 = system: SNB-78
KM-20L2 = system: KM-20L2
M19-MEL = system: M19-MEL
DMS-273 = system: DMS-273
RXF 631 = system: RXF 631
BT-549 = system: BT-549

Measured: GI50

O=C(CC/C(CC(=O)c1ccc(Br)cc1)=N\O)Nc1ccc(Cl)c(Cl)c1
inactive: HOP-18 60.5 µM | LXFL 529 47.3 µM | DLD-1 > 100 µM | SNB-78 > 100 µM | KM-20L2 > 100 µM | M19-MEL 64.7 µM | DMS-273 82.8 µM

N#CC(C(=O)CCC(=O)Nc1ccc(Cl)cc1)c1ccccc1Cl (configuration not stated)
inactive: RXF 631 > 100 µM | LXFL 529 13.4 µM | DLD-1 74.1 µM | SNB-78 > 100 µM | KM-20L2 17.1 µM | M19-MEL > 100 µM | DMS-273 > 100 µM

Cn1c(=O)c2c(nc3sc4nc5ccccc5nc4n32)n(C)c1=O
inactive: BT-549 > 100 µM

O=C1/C(=C\c2ccc(Cl)cc2Cl)Sc2scc(-c3ccc(O)c(O)c3)[n+]21
inactive: BT-549 17.9 µM

Cc1ccc([S+]([O-])C[C@](NC(=O)OCc2ccccc2)(Sc2ccccc2)C(F)F)cc1 (some centres not stated)
inactive: BT-549 16.3 µM

CCCCCCc1ccc(C(=O)NO)cc1
inactive: BT-549 28.6 µM

CCCC(=O)c1c(NOC2OCC(OC(C)=O)C(OC(C)=O)C2OC(C)=O)nc(OC)n(C)c1=O (configuration not stated)
inactive: RXF 631 > 100 µM | HOP-18 > 100 µM | LXFL 529 > 100 µM | DLD-1 > 100 µM | KM-20L2 > 100 µM | M19-MEL > 100 µM | DMS-273 > 100 µM

Cc1cccc2c3ccc4c(c3n(C)c12)C(=O)C=CC4=O
inactive: RXF 631 > 100 µM | LXFL 529 > 100 µM | DLD-1 > 100 µM | SNB-78 > 100 µM | M19-MEL > 100 µM | DMS-273 76 µM

O=C1OI(C#Cc2ccccc2)c2ccccc21
inactive: BT-549 2.88 µM

N#CC(C(=O)CCC(=O)Nc1ccc(Cl)c(Cl)c1)c1ccccc1 (configuration not stated)
inactive: HOP-18 > 100 µM | DLD-1 > 100 µM | SNB-78 > 100 µM | KM-20L2 > 100 µM | M19-MEL > 100 µM | DMS-273 > 100 µM

O=C1CC23CCCCCCCCCCC2(C1)CC(=O)C3 (configuration not stated)
inactive: HOP-18 24 µM | LXFL 529 23.6 µM | DLD-1 34 µM | M19-MEL 20.7 µM | DMS-273 23.1 µM

CC(C)(C)c1c(C(C)(C)C)c(=O)c1=O
inactive: BT-549 > 100 µM

COC(=O)C1[C@H](C(=O)OC)C1(Br)CBr (some centres not stated)
inactive: BT-549 > 100 µM

CC(=O)NCCc1c[nH]c2ccc(Cl)cc12
inactive: BT-549 25 µM

Nc1ncnc2c1nc(-c1ccccc1)n2C1OC(CO)C(O)C1O (configuration not stated)
inactive: BT-549 > 100 µM
